Publication PMC9414910, “Optimized ^68Ga-Labeled Urea-Based PSMA-Targeted PET Tracers for Prostate Cancer” (Pharmaceuticals, 2022)

What was measured:
[1] = Partition coefficient, octanol–water system; type: physicochemical; settings: octanol–water (v/v = 1:1), n = 3
Procedure: (§1) The partition coefficient of each novel radiotracer was determined using an octanol–water system (v/v = 1:1). The in vitro stability was determined using two systems (PBS and 5% BSA). The Ki value was measured by the NAALADase assay. The 22Rv1 and PC-3 cell lines were used for the cell-binding study and establishment of the tumor-bearing model (detailed information is shown in the Supplementary Materials).
PBS) and reported as log p ± SD. […]

[2] = tested on: 22Rv1 cells (mild PSMA+); assay: Cell uptake / binding in 22Rv1 cells; type: cell-based, human; settings: 60 min incubation, 37 °C
Source text: Cell lines were kindly provided by the stem cell bank of the Chinese Academy of Sciences. The human prostate cancer epithelial cell lines 22Rv1 (mild PSMA+) and PC-3 (with no PSMA receptor) were used to evaluate the specific cell-binding affinity of the radiotracers, and the results were expressed as percentages of injected activity, IA%/10^6.
Cell Lines and Culture Condition
Cell lines were kindly provided by the stem cell bank, the Chinese Academy of Sciences. The human prostate cancer cell lines 22Rv1 ( mild PSMA positive) and PC3 (PSMA negative) were cultured in RPMI 1640 medium or F12K medium (CORNING, America), supplemented with 10% Fetal Bovine Serum
(GIBCO, The Netherlands) and 1% penicillin-streptomycin (CORNING, America) in a humidified incubator at 37 °C under 5% CO2. Each cell line was passaged when it was at around 80-90% confluence, and harvested using trypsin-ethylenediaminetetraacetic acid (trypsin-EDTA; 0.25% trypsin, 0.02% EDTA, all from KeyGEN BioTECH).
Cells were seeded separately in 24 well plates (1 x 10^5 cells in 1 mL medium/well) and incubated overnight, the medium was changed 2 h before the experiment. For the binding experiments, cells were incubated with novel […]
min, 30 min and 60 min (6 wells/time point). After incubation, the medium was removed and the cells were washed twice with ice-cold phosphate-buffered saline (0.5 mL). Finally, the cells were lysed by NaOH (0.5 M, 0.5 mL). Coincubation of 2-(phosphonomethyl) pentane-1,5-dioic acid […]
(2-PMPA) solution (2 μg/well) and each radiotracer for 60 min was conducted as the blocking experiment. The radioactivity of cells was measured by a γ-counter. The studies were performed in triplicate and the results were reported as the percentage injected activity (IA%/10^6 cells). […]

[3] = Blood pharmacokinetics in male ICR mice; type: in vivo; settings: 7.4 MBq i.v., two-compartment model
Procedure: Injection of novel radiotracers or [68Ga]Ga-PSMA-617 or [68Ga]Ga-PSMA-11 […]
mice (5 mice/group), and the blood sample (5 μL) of each mouse was collected by cutting down the tail end at different time points post injection. The radioactivity of blood samples were measured by a γ-counter and the pharmacokinetics data was calculated using the WinNonlin software.
Figure S3. Time-activity curves of the blood samplesafter injection of 7.4 MBq of [68Ga]Ga-PSMA-4PY (A), [68Ga]Ga-PSMA-Q (B),[68Ga]Ga-PSMA-P (C), [68Ga]Ga-PSMA-617 (D), [68Ga]Ga-PSMA-11 (E), [68Ga]Ga-PSMA-Q-1 (F), [68Ga]Ga-PSMA-Q-2 (G) and [68Ga]Ga-PSMA-Q-3 (H).
(1 picture or pasted object on this page, not shown here)

[4] = tested on: 22Rv1 tumor-bearing mice; assay: Biodistribution in 22Rv1 tumor-bearing mice; settings: for Uptake Blood, Mean / Uptake Bone, Mean / Uptake Heart, Mean / Uptake Kidney, Mean / Uptake Liver, Mean / Uptake Lung, Mean / Uptake Muscle, Mean / Uptake Spleen, Mean / Uptake Tumor (22Rv1), Mean: 0.74 MBq, n = 3; for Clearance profile in the kidneys: within 60 min p.i.
Procedure: (§2) The animal studies were approved by the institutional animal care and use committee of the Chinese PLA General Hospital. Healthy male ICR mice were injected with either a novel radiotracer (37 MBq in 150 μL) or saline (150 μL) for the radiotoxicity evaluation. […] Biodistribution and micro-PET studies were performed on 22Rv1 and PC-3 xenograft models, and 2-PMPA was used as the PSMA blocker (all details are shown in the Supplementary Materials).
BALB/c nude mice (male, 4-6 weeks) were inoculated subcutaneously with […]
100 mm3, the mice underwent biodistribution study and Micro-PET imaging.
The 22Rv1 tumor-bearing mice were injected with each novel radiotracer or […]
[…] Mice were sacrificed at different time points p.i. (10 min, 30 min, 60 min), tumors and interested organs were harvested, weighed and measured by a γ-counter, the results were expressed as the percentage of injected dose per gram (ID%/g).
Table S1. Uptake values for ex vivo tissues of [ 68Ga]Ga-PSMA-Q (0.74 MBq/mice) in 22Rv1 tumor-bearing mice (10, 30 and 60 min p.i., n = 3/time point).

[5] = tested on: 22Rv1 tumors; assay: Micro-PET imaging in 22Rv1 tumor-bearing mice; type: in vivo; settings: 60 min p.i.; for SUVmax of tumor: 22Rv1 tumor, 7.4 MBq
Procedure: as §2
Table S9. Tumor-to-mu scle (T/M) ratio and tumor- to-kidney (T/K) rati o of radiotracers at 60 min p.i.
The Mice bearing 22Rv1 and PC-3 (n = 3/group) xenograft tumors were […]
Co-injection with 2-PMPA (50 μ g) and each novel tracer (7.4 MBq in 150 μL) was used for blocking. Then the mice were anesthetized with 3% (v/v) isoflurane and underwent Micro-PET scans with continuous 1% (v/v) isoflurane. The images were acquired at 60 min p.i.. In comparison, […]
into another group of mice (n = 3), and Micro-PET schedule was performed as […]
Imaging was performed on a Super Nova PET/CT scanner using a 100-mm-transaxial field of view for PET and 110-mm for CT.
Three-dimensional ordered-subsets expectation maximization reconstruction

[6] = Radiotoxicity study in male ICR mice; type: in vivo
[7] = biological target: T1, Recombinant human PSMA (rhPSMA) (Homo sapiens, UniProt Q04609); assay: NAALADase assay (enzyme-based assay on rhPSMA); type: biochemical; settings: NAAG substrate, unlabeled ligands, read-out: Ki (PSMA inhibition constant)
T1 construct: purchased R&D systems, Wiesbaden, Germany
T1 sequence (Q04609 whole entry): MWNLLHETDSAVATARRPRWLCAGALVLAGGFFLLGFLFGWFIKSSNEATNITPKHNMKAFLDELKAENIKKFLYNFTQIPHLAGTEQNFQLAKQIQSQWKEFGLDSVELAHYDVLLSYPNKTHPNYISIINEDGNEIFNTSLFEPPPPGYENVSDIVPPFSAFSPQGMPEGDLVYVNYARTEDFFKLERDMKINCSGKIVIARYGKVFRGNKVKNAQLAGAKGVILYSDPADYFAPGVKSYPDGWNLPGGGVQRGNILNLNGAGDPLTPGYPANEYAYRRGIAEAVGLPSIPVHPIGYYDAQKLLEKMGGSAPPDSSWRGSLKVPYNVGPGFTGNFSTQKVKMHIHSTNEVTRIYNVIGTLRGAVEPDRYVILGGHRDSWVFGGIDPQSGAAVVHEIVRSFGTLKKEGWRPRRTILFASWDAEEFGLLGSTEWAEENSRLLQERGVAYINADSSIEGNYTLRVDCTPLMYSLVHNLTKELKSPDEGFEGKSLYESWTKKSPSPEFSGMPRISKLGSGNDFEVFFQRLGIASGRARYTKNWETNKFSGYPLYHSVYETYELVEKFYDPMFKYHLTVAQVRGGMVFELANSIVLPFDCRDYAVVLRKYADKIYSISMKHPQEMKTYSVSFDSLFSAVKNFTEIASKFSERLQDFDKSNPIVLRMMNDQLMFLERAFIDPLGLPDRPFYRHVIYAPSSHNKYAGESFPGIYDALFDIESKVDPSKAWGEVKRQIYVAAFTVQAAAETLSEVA
Procedure: as §1
The PSMA-inhibitory activity of novel PSMA ligands was analyzed by performing an enzyme-based assay on rhPSMA [11].
PBS) and reported as log p ± SD.
The in vitro stability of radiotracers was determined by measuring radiochemical purity (RCP) in […] and 5% bovine serum albumin (BSA) at 37 °C at different time intervals (30 min, 60 min, 120 min) using radio-HPLC.
Recombinant human PSMA (rhPSMA, R&D systems, Wiesbaden, Germany) was diluted in assay buffer (50 mM HEPES, 0.1 M NaCl, pH 7.5) to 0.4 μg/mL. […]
250 μL of ortho-phthaldialdehyde solution (OPA, 15 mM, Sigma, Taufkirchen, Germany) was added to each vial and incubated for 3 min at room temperature. 200 μL aliquot of each vial was added into a 96 black well plate and read at excitation and emission wavelengths of 350 and 450 nm using a microplate reader. […] The data were analyzed by the one-site total binding regression algorithm of GraphPad

[8] = 60 min p.i., listed as [68Ga]Ga-PSMA-Q
[9] = biodistribution, 22Rv1 tumor-bearing mice, 60 min p.i.

Structure (SMILES)	Log p pH = 7.4 [1]	Uptake in 22Rv1 cells [2]	Elimination half-life [3]	Uptake Blood, Mean ([4]; 10 min p.i.)	Uptake Bone, Mean ([4]; 10 min p.i.)	Uptake Heart, Mean ([4]; 10 min p.i.)	Uptake Kidney, Mean ([4]; 10 min p.i.)	Uptake Liver, Mean ([4]; 10 min p.i.)	Uptake Lung, Mean ([4]; 10 min p.i.)	Uptake Muscle, Mean ([4]; 10 min p.i.)	Uptake Spleen, Mean ([4]; 10 min p.i.)	Uptake Tumor (22Rv1), Mean ([4]; 10 min p.i.)	Uptake Blood, Mean ([4]; 30 min p.i.)	Uptake Bone, Mean ([4]; 30 min p.i.)	Uptake Kidney, Mean ([4]; 30 min p.i.)	Uptake Liver, Mean ([4]; 30 min p.i.)	Uptake Lung, Mean ([4]; 30 min p.i.)	Uptake Muscle, Mean ([4]; 30 min p.i.)	Uptake Spleen, Mean ([4]; 30 min p.i.)	Uptake Tumor (22Rv1), Mean ([4]; 30 min p.i.)	also measured
O=C([O-])CN1CCN(CC(=O)[O-])CCN(CC(=O)NCC2CCC(C(=O)NC(Cc3cnc4ccccc4c3)C(=O)NCCCCC(NC(=O)NC(CCC(=O)O)C(=O)O)C(=O)O)CC2)CCN(CC(=O)O)CC1.[68Ga+3] (stereo not shown) [[^68Ga]Ga-PSMA-Q]	−3.24 ± 0.21	3.75 ± 0.35 IA%/10^6	17.86 ± 1.23 min	2.62 ID%/g	0.72 ID%/g	2.07 ID%/g	8.79 ID%/g	2.13 ID%/g	1.10 ID%/g	0.70 ID%/g	2.16 ID%/g	1.86 ID%/g	1.04 ID%/g	0.22 ID%/g	5.91 ID%/g	1.14 ID%/g	0.76 ID%/g	0.21 ID%/g	1.73 ID%/g	2.98 ID%/g	Uptake Heart, Mean ([4]; 30 min p.i.): 0.98 ID%/g; Uptake Blood, Mean ([4]; 60 min p.i.): 0.31 ID%/g; Uptake Bone, Mean ([4]; 60 min p.i.): 0.21 ID%/g; Uptake Heart, Mean ([4]; 60 min p.i.): 0.08 ID%/g; Uptake Liver, Mean ([4]; 60 min p.i.): 0.70 ID%/g; Uptake Lung, Mean ([4]; 60 min p.i.): 0.33 ID%/g; Uptake Muscle, Mean ([4]; 60 min p.i.): 0.13 ID%/g; Uptake Spleen, Mean ([4]; 60 min p.i.): 0.35 ID%/g; Uptake Tumor (22Rv1), Mean ([4]; 60 min p.i.): 4.06 ± 0.36 ID%/g; Uptake Kidney, Mean [4, 8]: 2.46 ID%/g; Uptake Tumor (22Rv1), Mean [4, 8]: 4.06 ID%/g; Tumor-to-kidney (T/K) ratio [4, 9]: 1.60 ± 0.08; Tumor-to-muscle (T/M) ratio [4, 9]: 31.44 ± 2.09; Clearance profile in the kidneys [4]: washed out rapidly from the kidneys; SUVmax of tumor [5]: 0.97 ± 0.24; Tumor-to-muscle ratio (micro-PET) ([5]; 22Rv1 tumor-bearing mice): 59.33 ± 5.72; Survival ([6]; 37 MBq in 150 μL, 14 days): did not die within 14 days; Routine blood tests and H&E staining of the main organs vs control ([6]; 37 MBq in 150 μL, vs saline): no significant differences; Acute radiotoxicity-related adverse events ([6]; toxicity experiments in mice): no acute radiotoxicity-related adverse events were observed
O=C(O)CC[C@H](NC(=O)N[C@@H](CCCCNC(=O)[C@H](Cc1ccc2ccccc2c1)NC(=O)[C@H]1CC[C@H](CNC(=O)CN2CCN(CC(=O)O)CCN(CC(=O)O)CCN(CC(=O)O)CC2)CC1)C(=O)O)C(=O)O [PSMA-617, reference compound]	–	–	–	–	–	–	–	–	–	–	–	–	–	–	–	–	–	–	–	–	Ki [7]: 2.89 ± 1.07 nM
O=C([O-])CN1CCN(CC(=O)[O-])CCN(CC(=O)NCCCCC(=O)NC(Cc2cnc3ccccc3c2)C(=O)NCCCCC(NC(=O)NC(CCC(=O)O)C(=O)O)C(=O)O)CCN(CC(=O)O)CC1.[68Ga+3] (stereo not shown) [[^68Ga]Ga-PSMA-Q-1]	−3.09 ± 0.19	3.38 ± 0.50 IA%/10^6	21.17 ± 2.01 min	2.88 ID%/g	0.72 ID%/g	2.21 ID%/g	27.12 ID%/g	2.38 ID%/g	1.19 ID%/g	0.81 ID%/g	2.26 ID%/g	1.67 ID%/g	1.31 ID%/g	0.21 ID%/g	18.86 ID%/g	1.23 ID%/g	0.68 ID%/g	0.18 ID%/g	1.79 ID%/g	2.07 ID%/g	Uptake Blood, Mean ([4]; 60 min p.i.): 0.37 ID%/g; Uptake Bone, Mean ([4]; 60 min p.i.): 0.15 ID%/g; Uptake Heart, Mean ([4]; 60 min p.i.): 0.54 ID%/g; Uptake Kidney, Mean ([4]; 60 min p.i.): 5.70 ID%/g; Uptake Liver, Mean ([4]; 60 min p.i.): 0.45 ID%/g; Uptake Lung, Mean ([4]; 60 min p.i.): 0.26 ID%/g; Uptake Muscle, Mean ([4]; 60 min p.i.): 0.09 ID%/g; Uptake Spleen, Mean ([4]; 60 min p.i.): 0.45 ID%/g; Uptake Tumor (22Rv1), Mean ([4]; 60 min p.i.): 2.38 ± 0.31 ID%/g; Uptake Tumor (22Rv1), Mean ([4]; 60 min p.i., listed as [68Ga]Ga-PSMA-Q-1): 2.38 ID%/g; Clearance profile in the kidneys [4]: washed out rapidly from the kidneys; SUVmax of tumor [5]: 0.86 ± 0.09
O=C(O)CCC(NC(=O)NC(CCCCNC(=O)C(Cc1cc2ccc3cccc4ccc(c1)c2c34)NC(=O)C1CCC(CNC(=O)CN2CCN(CC(=O)O)CCN(CC(=O)O)CCN(CC(=O)O)CC2)CC1)C(=O)O)C(=O)O (stereo not shown) [PSMA-P]	–	–	–	–	–	–	–	–	–	–	–	–	–	–	–	–	–	–	–	–	Ki [7]: 42.4 ± 2.11 nM
